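At the GI50, growth is halved. TGI is the concentration that stops growth completely.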
Legend:
Assay in all cases: inhibition of tumour cell growth, NCI panel, 384-well format
HOP-92 NSCLC = system: HOP-92 NSCLC
SNB-19 CNS = system: SNB-19 CNS
OVCAR-8 ovarian = system: OVCAR-8 ovarian
SF-539 CNS = system: SF-539 CNS
SW-620 colon = system: SW-620 colon
DU-145 prostate = system: DU-145 prostate
COLO 205 colon = system: COLO 205 colon
K-562 leukemia = system: K-562 leukemia
RPMI-8226 leukemia = system: RPMI-8226 leukemia
UACC-257 melanoma = system: UACC-257 melanoma
MALME-3M melanoma = system: MALME-3M melanoma
HCT-15 colon = system: HCT-15 colon
CAKI-1 renal = system: CAKI-1 renal
SNB-75 CNS = system: SNB-75 CNS
SK-MEL-5 melanoma = system: SK-MEL-5 melanoma
NCI-H226 lung = system: NCI-H226 lung
NCI-H522 lung = system: NCI-H522 lung
NCI-H460 NSCLC = system: NCI-H460 NSCLC
HS 578T breast = system: HS 578T breast
PC-3 prostate = system: PC-3 prostate
SR leukemia = system: SR leukemia
786-0 renal = system: 786-0 renal
TK-10 renal = system: TK-10 renal
OVCAR-4 ovarian = system: OVCAR-4 ovarian
SK-MEL-2 melanoma = system: SK-MEL-2 melanoma
MDA-MB-231 breast = system: MDA-MB-231 breast
NCI/ADR-RES ovarian = system: NCI/ADR-RES ovarian
BT-549 breast = system: BT-549 breast
MDA-MB-435 melanoma = system: MDA-MB-435 melanoma
A549 NSCLC = system: A549 NSCLC

In the case of `N#Cc1ccc(-c2c(-c3ncn[nH]3)sc(N3CCOCC3)c2C#N)c(F)c1`, the GI50 (HOP-92 NSCLC) is reported as 1.16 µM, the TGI (HOP-92 NSCLC) is reported as > 33 µM and the GI50 (SNB-19 CNS) is reported as 14.7 µM. For the same compound, the TGI (SNB-19 CNS) was > 70.8 µM, the GI50 (OVCAR-8 ovarian) was 3.52 µM and the TGI (OVCAR-8 ovarian) was > 60.2 µM. For the same compound, the GI50 (SF-539 CNS) was 1.7 µM, the TGI (SF-539 CNS) was 20 µM and the GI50 (SW-620 colon) was 4.94 µM. It also gave a TGI (SW-620 colon) of 23.6 µM, a GI50 (DU-145 prostate) of 1.91 µM and a TGI (DU-145 prostate) of 15.1 µM. It also gave a GI50 (COLO 205 colon) of 1.65 µM, a TGI (COLO 205 colon) of 17.4 µM and a GI50 (K-562 leukemia) of 6.27 µM. For the same compound, the TGI (K-562 leukemia) was > 100 µM, the GI50 (RPMI-8226 leukemia) was 1.82 µM and the TGI (RPMI-8226 leukemia) was 5.06 µM. It also gave a GI50 (UACC-257 melanoma) of 2.51 µM, a TGI (UACC-257 melanoma) of 15.1 µM and a GI50 (MALME-3M melanoma) of 0.95 µM. It also gave a TGI (MALME-3M melanoma) of 6.92 µM, a GI50 (HCT-15 colon) of 1.69 µM and a TGI (HCT-15 colon) of 15.9 µM. For the same compound, the GI50 (CAKI-1 renal) was 0.557 µM, the TGI (CAKI-1 renal) was 13.2 µM and the GI50 (SNB-75 CNS) was 0.32 µM. For the same compound, the GI50 (SK-MEL-5 melanoma) was 1.77 µM, the TGI (SK-MEL-5 melanoma) was 10 µM and the GI50 (NCI-H226 lung) was 2.01 µM. For the same compound, the TGI (NCI-H226 lung) was 17.3 µM, the GI50 (NCI-H522 lung) was 1.98 µM and the TGI (NCI-H522 lung) was 17.3 µM. The GI50 (NCI-H460 NSCLC) was 0.68 µM, the TGI (NCI-H460 NSCLC) was 11.4 µM and the GI50 (HS 578T breast) was 0.779 µM. The TGI (HS 578T breast) was 16 µM, the GI50 (PC-3 prostate) was 0.641 µM and the TGI (PC-3 prostate) was 8.87 µM. It also gave a GI50 (SR leukemia) of 0.763 µM, a TGI (SR leukemia) of 2.57 µM and a GI50 ([…]-0 renal) of 2.13 µM. It also gave a TGI (786-0 renal) of 11.5 µM, a GI50 (TK-10 renal) of 0.789 µM and a TGI (TK-10 renal) of 9.59 µM. For the same compound, the GI50 (OVCAR-4 ovarian) was 1.96 µM, the TGI (OVCAR-4 ovarian) was 22.1 µM and the GI50 (SK-MEL-2 melanoma) was 2.64 µM. For the same compound, the TGI (SK-MEL-2 melanoma) was 12.6 µM, the GI50 (MDA-MB-231 breast) was 5.88 µM and the TGI (MDA-MB-231 breast) was > 62.6 µM. The GI50 (NCI/ADR-RES ovarian) was 5.53 µM, the TGI (NCI/ADR-RES ovarian) was 63.6 µM and the GI50 (BT-549 breast) was 1.95 µM. For the same compound, the TGI (BT-549 breast) was 12.8 µM, the GI50 (MDA-MB-435 melanoma) was 2.47 µM and the TGI (MDA-MB-435 melanoma) was 19.5 µM. The GI50 (A549 NSCLC) was 1.35 µM and the TGI (A549 NSCLC) was 11.8 µM.

Reference: PubChem BioAssay (NCI)
